Laboratory results taken from patent publication US11583572B2, “Encapsulation of ultra-stable insulin analogues with polymer melts” (CASE WESTERN RESERVE UNIVERSITY, priority 2015, dated 2023).
Bridges are numbered along the chain shown (N, C = ends). Where no end group is shown, it is not given here.

Key:
[1] = target: A isoform of the insulin receptor (Homo sapiens, UniProt P06213)
[2] = Elution of protein from PLGA polymer cylinders in phosphate-buffered saline (Bradford assay calibrated by ELISA); assay type: physicochemical; conditions: 5% PEG, PBS pH 7.4, 37° C.
Method: FIG. 4 is a graph showing elution of ultra-stable single-chain analogue (SCI) from PLGA polymer (50-50%) in phosphate-buffered saline (pH 7.4 and 37° C.). Horizontal axis denotes soaking time. Vertical axis denotes nanograms of insulin analogue (dark gray triangles) or relative Bradford-active material in control polymers containing hen egg white lysozyme (light gray squares) or no protein (dark gray diamonds). The latter represents background signal in the Bradford assay due to non-protein material. Horizontal plateau at days 10-15 represents no further elution of protein from the polymers. Samples were made with 5% PEG (mean molecular mass 8 kDa) to optimize the near-linear rate of SCI elution between 1-10 days. Immediate burst release of a portion of the material is not shown.
Elution of insulin analogue protein from a polymer melt in phosphate buffered saline (PBS) at pH 7.4 was also examined. Test cylindrical polymers were prepared with 50%-50% PLGA containing 25% weight/weight of a single-chain insulin (SCI) analogue stabilized by a fourth disulfide bridge between residues B4 and A10. […]
The cumulative amounts of protein released are also provided below in Table 1. In this table the micrograms of insulin corresponding to the Bradford assay was verified by ELISA whereas the readings for lysozyme are uncalibrated by an independent assay.

Chain of A isoform of the insulin receptor (P06213 28-746 isoform P06213-2 limits assumed): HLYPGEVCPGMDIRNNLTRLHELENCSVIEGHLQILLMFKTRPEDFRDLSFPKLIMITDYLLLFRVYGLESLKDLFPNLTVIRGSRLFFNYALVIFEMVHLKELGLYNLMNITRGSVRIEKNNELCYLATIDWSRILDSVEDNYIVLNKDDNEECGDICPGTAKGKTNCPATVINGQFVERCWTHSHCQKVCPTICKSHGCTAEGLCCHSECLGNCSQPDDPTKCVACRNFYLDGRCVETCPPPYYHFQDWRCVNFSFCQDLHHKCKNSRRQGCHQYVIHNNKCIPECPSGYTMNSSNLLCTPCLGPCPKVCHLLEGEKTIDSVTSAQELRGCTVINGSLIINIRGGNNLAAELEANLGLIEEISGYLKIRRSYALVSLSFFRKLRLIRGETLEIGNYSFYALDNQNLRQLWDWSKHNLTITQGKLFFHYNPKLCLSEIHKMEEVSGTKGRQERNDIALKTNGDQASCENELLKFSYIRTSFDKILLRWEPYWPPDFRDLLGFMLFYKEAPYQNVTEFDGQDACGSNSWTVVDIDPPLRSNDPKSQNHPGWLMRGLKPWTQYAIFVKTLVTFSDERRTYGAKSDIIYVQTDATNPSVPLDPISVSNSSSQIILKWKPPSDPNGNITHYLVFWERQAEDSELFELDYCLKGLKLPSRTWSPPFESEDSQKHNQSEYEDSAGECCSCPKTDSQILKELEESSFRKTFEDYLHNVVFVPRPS
Chain of A isoform of the insulin receptor (P06213 763-1382 partner limits assumed): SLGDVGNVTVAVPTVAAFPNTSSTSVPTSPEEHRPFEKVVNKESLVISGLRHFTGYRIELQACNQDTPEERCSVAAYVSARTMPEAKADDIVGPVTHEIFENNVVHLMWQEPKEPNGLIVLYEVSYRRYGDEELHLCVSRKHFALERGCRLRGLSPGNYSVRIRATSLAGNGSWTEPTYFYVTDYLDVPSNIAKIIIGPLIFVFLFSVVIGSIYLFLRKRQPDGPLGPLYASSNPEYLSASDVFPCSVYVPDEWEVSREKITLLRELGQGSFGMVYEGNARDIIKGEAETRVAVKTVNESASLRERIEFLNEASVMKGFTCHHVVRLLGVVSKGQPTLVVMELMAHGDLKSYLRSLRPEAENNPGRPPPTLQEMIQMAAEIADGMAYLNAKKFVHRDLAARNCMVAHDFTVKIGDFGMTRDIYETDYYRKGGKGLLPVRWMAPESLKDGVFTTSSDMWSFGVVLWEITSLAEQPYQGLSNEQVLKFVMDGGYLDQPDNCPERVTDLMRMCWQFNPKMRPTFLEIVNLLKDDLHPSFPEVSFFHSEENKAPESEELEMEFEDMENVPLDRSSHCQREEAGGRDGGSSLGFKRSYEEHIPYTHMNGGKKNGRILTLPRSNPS

Row | Substance | affinity for the A isoform of the insulin receptor relative to human insulin [1] [%] | protein release from PLGA polymer during days 10-15 [2]
1 | FVNCHLCGSHLVEALYLVCGERGFFYTDPTEEGPRRGIVEQCCHSCCSLEQLENYCN (disulfide 4-46, 7-43, 19-56, 42-47) [4SS 81-04] | 120±20 | 
2 | hen egg-white lysozyme: control protein in analogous co-polymer instead of an insulin analogue |  | no further release
